SMILES strings stand for the structures. Bounds are passed on as bounds.

The experiment concerns the target rhSYK (Homo sapiens (Human), UniProt P43405). Conditions: read-out: rhSYK activity.
For `FC(F)(F)c1cc(Br)cc(Nc2nccc(C(F)(F)F)n2)c1` [N-[3-bromo-5-(trifluoromethyl)phenyl]-4-(trifluoromethyl)pyrimidin-2-amine], the IC50 lay in the range of 1000 to 10000 nM.

With `Cc1cc(Nc2nccc(C)n2)cc(-c2cnc([C@]3(O)[C@H]4CC5C[C@H]3C[C@](C(=O)O)(C5)C4)s2)c1` [Example 4B-30], the IC50 is under 100 nM.

In the case of `Cc1cc(Nc2nccc(C(F)(F)F)n2)cc(-c2cncs2)c1` [Intermediate 4, N-[3-methyl-5-(1,3-thiazol-5-yl)phenyl]-4-(trifluoromethyl)pyrimidin-2-amine], the IC50 is under 100 nM.

Turning to `COc1nc(Nc2cc(C)cc(-c3cnc(C(C)(O)CO)s3)c2)ncc1Cl` (centres unmarked) [Ex 5-19], the IC50 was under 100 nM.

Regarding `C#Cc1cc(Nc2nccc(C(F)(F)F)n2)cc(-c2cnc(C(C)(C)O)s2)c1` [Example 29, 2-[5-(3-ethynyl-5-{[4-(trifluoromethyl)pyrimidin-2-yl]amino}phenyl)-1,3-thiazol-2-yl]propan-2-ol], the IC50 is under 100 nM.

As to `CCc1cc(Nc2nccc(C(F)(F)F)n2)cc(-c2cnc(C(C)(C)O)s2)c1` [Example 30, 2-[5-(3-ethyl-5-{[4-(trifluoromethyl)pyrimidin-2-yl]amino}phenyl)-1,3-thiazol-2-yl]propan-2-ol], the IC50 is under 100 nM.

Take `Cc1cc(Nc2nccc(C(F)(F)F)n2)cc(-c2cnc(C3(O)CCN(c4ccc(F)cc4)CC3)s2)c1` [4D-12]: the IC50 was under 100 nM.

In the case of `Cc1cc(Nc2nccc(C(F)(F)F)n2)cc(-c2cnc(C(O)CCc3c[nH]cn3)s2)c1` (centres unmarked) [Example 4A-40, 3-(1H-imidazol-4-yl)-1-[5-(3-methyl-5-{[4-(trifluoromethyl)pyrimidin-2-yl]amino}phenyl)-1,3-thiazol-2-yl]propan-1-ol], the IC50 was under 100 nM.

`COc1ccnc(Nc2cc(C)cc(-c3cnc(C4(O)CCC5(CC4)OCCO5)s3)c2)n1` [Example 4B-16]: the IC50 is under 100 nM.

`Cc1cc(Nc2nccc(C(F)(F)F)n2)cc(-c2cnc(C3(O)CCC4(C)C(=O)CCC4(O)C3)s2)c1` (centres unmarked) [Example 4B-26]: the IC50 was under 100 nM.

As to `Cc1cc(Nc2nccc(C)n2)cc(-c2cnc(C3(O)CCC(CN)CC3)s2)c1` (centres unmarked) [Example 4C-2], the IC50 was under 100 nM.

On to `CC1(C)C(O)C(C)(C)C1(O)c1ncc(-c2cccc(Nc3nccc(C(F)(F)F)n3)c2)s1` (centres unmarked) [Example 6-10], for which the IC50 fell in the range of 100 to 1000 nM.

On to `CCOC(=O)C1CCC(O)(c2ncc(-c3cc(C)cc(N(C(=O)OC(C)(C)C)c4nccc(C(F)(F)F)n4)c3)s2)CC1` (centres unmarked) [Intermediate 119, Ethyl 4-[5-(3-{(tert-butoxycarbonyl)[4-(trifluoromethyl)pyrimidin-2-yl]amino}-5-methylphenyl)-1,3-thiazol-2-yl]-4-hydroxycyclohexanecarboxylate], for which the IC50 lay within 1000 to 10000 nM.

Regarding `Cc1cc(Nc2nccc(C)n2)cc(-c2cnc(C3(O)CCC(C(=O)O)[C@H]4CCCC[C@@H]43)s2)c1` (some centres unmarked) [Example 4B-23], the IC50 was under 100 nM.

`CC(O)(CO)c1ncc(-c2cccc(Nc3nccc(C(F)(F)F)n3)c2)s1` (single isomer, unassigned) [Ex 5-3]: the IC50 is under 100 nM.

As for `Cc1cc(Nc2nccc(C(F)(F)F)n2)cc(-c2cnc(C3(O)CCN(c4cccc(F)c4)CC3)s2)c1` [4D-10], the IC50 is 100 to 1000 nM.

With `Cc1cc(Nc2nccc(C(F)(F)F)n2)cc(-c2cnc(C3(O)CCN(C(N)=O)CC3)s2)c1` [Example 47, 4-hydroxy-4-[5-(3-methyl-5-{[4-(trifluoromethyl)pyrimidin-2-yl]amino}phenyl)-1,3-thiazol-2-yl]piperidine-1-carboxamide], the IC50 is under 100 nM.

Consider `Cc1cc(Nc2nccc(C(F)(F)F)n2)cc(-c2cnc(C3(O)CC4(O)CCC3(C)CC4)s2)c1` (centres unmarked) [Example 4B-41], for which the IC50 is under 100 nM.

For the compound `CC(=O)Nc1cc(Nc2nccc(C(F)(F)F)n2)cc(-c2cnc(C3(O)CCC3)s2)c1` [Example 16, N-(3-[2-(1-hydroxycyclobutyl)-1,3-thiazol-5-yl]-5-{[4-(trifluoromethyl)pyrimidin-2-yl]amino}phenyl)acetamide], the IC50 was under 100 nM.

As for `OC1(c2ncc(-c3cccc(Nc4nccc(C(F)(F)F)n4)c3)s2)CC2CCC1N2` (centres unmarked) [Example 4B-10], the IC50 was in the range of 100 to 1000 nM.

For `Cc1cc(Nc2nccc(C(F)(F)F)n2)cc(-c2cnc(C3(O)CCC(CCN)CC3)s2)c1` (centres unmarked) [Example 4C-5], the IC50 is under 100 nM.

`Cc1cc(Nc2nccc(C(F)(F)F)n2)cc(-c2cnc(C3CCC(C(=O)O)CC3)s2)c1` (centres unmarked) [Example 36, 4-[5-(3-methyl-5-{[4-(trifluoromethyl)pyrimidin-2-yl]amino}phenyl)-1,3-thiazol-2-yl]cyclohexanecarboxylic acid]: the IC50 was under 100 nM.

Regarding `Cc1cc(Nc2nccc(C(F)(F)F)n2)cc(-c2cnc(C(O)C(F)(F)F)s2)c1` (single isomer, unassigned) [Example 6-3], the IC50 is under 100 nM.

`Cc1cc(Nc2nccc(C(F)(F)F)n2)cc(-c2cnc(C3(O)CC4(C(=O)O)CCC3(C)C4(C)C)s2)c1` (centres unmarked) [Example 4B-49]: the IC50 was under 100 nM.

As to `Cc1cc(Nc2nccc(C(F)(F)F)n2)cc(-c2cnc(C3(O)C[C@H]4CC(=O)C[C@H]4C3)s2)c1` (some centres unmarked) [Example 4B-20], the IC50 was under 100 nM.

Consider `Cc1cc(Nc2nccc(C(F)(F)F)n2)cc(-c2cnc(C3(O)CCN(c4ccccc4F)CC3)s2)c1` [4D-11], for which the IC50 lay within 100 to 1000 nM.

As for `Cc1cc(Nc2nccc(C)n2)cc(-c2cnc(C3(O)CCC(N)(C(=O)O)CC3)s2)c1` (centres unmarked) [Example 4C-10], the IC50 is under 100 nM.

Take `Cc1cc(Nc2nccc(C(F)(F)F)n2)cc(-c2cnc(C3(O)C=CCCCC3)s2)c1` (centres unmarked) [Example 4B-55]: the IC50 is under 100 nM.

For `Cc1cc(Nc2nccc(C(F)(F)F)n2)cc(-c2cnc(C(O)C(F)(F)F)s2)c1` (centres unmarked) [Example 6, 2,2,2-trifluoro-1-[5-(3-methyl-5-{[4-(trifluoromethyl)pyrimidin-2-yl]amino}phenyl)-1,3-thiazol-2-yl]ethanol], the IC50 is under 100 nM.

Turning to `Cc1cc(Nc2ncc(F)cn2)cc(-c2cncs2)c1` [Intermediate 50, 5-Fluoro-N-[3-methyl-5-(1,3-thiazol-5-yl)phenyl]pyrimidin-2-amine], the IC50 fell in the range of 100 to 1000 nM.

In the case of `OC1(c2ncc(-c3cccc(Nc4nccc(C(F)(F)F)n4)c3)s2)CCN(C2CC2)CC1` [4D-3], the IC50 was under 100 nM.

Regarding `CC(C)(O)c1ncc(-c2cc(Br)cc(Nc3nccc(C(F)(F)F)n3)c2)s1` [Example 4A-4, 2-[5-(3-bromo-5-{[4-(trifluoromethyl)pyrimidin-2-yl]amino}phenyl)-1,3-thiazol-2-yl]propan-2-ol], the IC50 was under 100 nM.

Take `Cc1cc(Nc2nccc(C)n2)cc(-c2cnc(C3(O)CC4(C(=O)O)CCC3(C)C4(C)C)s2)c1` (centres unmarked) [Example 4B-32]: the IC50 was under 100 nM.

For `CC(O)(CO)c1ncc(-c2cccc(Nc3nccc(C(F)(F)F)n3)c2)s1` (centres unmarked) [Ex 5-1], the IC50 is under 100 nM.

Consider `Cn1ccc(C(C)(O)c2ncc(-c3cccc(Nc4nccc(C(F)(F)F)n4)c3)s2)c1` (centres unmarked) [Example 4A-16], for which the IC50 is under 100 nM.

As for `Cc1cc(Nc2nccc(C(F)(F)F)n2)cc(-c2cnc(C3(O)C4CC5C(C4C(=O)O)C53)s2)c1` (centres unmarked) [Example 4B-36], the IC50 was under 100 nM.

Consider `Cc1cc(Nc2nccc(C(F)(F)F)n2)cc(-c2cnc(C3(O)COC3)s2)c1` [Example 4B-12], for which the IC50 was under 100 nM.

On to `Cc1cc(Nc2nccc(C(F)(F)F)n2)cc(-c2cnc(C3(O)C4CC5CC(C4)C(C(=O)O)C3C5)s2)c1` (centres unmarked) [Example 4B-43], for which the IC50 is under 100 nM.

In the case of `CC(C)(CO)c1ncc(-c2cccc(Nc3nccc(C(F)(F)F)n3)c2)s1` [Example 21, 2-methyl-2-[5-(3-{[4-(trifluoromethyl)pyrimidin-2-yl]amino}phenyl)-1,3-thiazol-2-yl]propan-1-ol], the IC50 was under 100 nM.

On to `Cc1cc(Nc2nccc(C(F)(F)F)n2)cc(-c2cnc(C3(NS(N)(=O)=O)COC3)s2)c1` [Example 63, N-{3-[5-(3-methyl-5-{[4-(trifluoromethyl)pyrimidin-2-yl]amino}phenyl)-1,3-thiazol-2-yl]oxetan-3-yl}sulfuric diamide], for which the IC50 is under 100 nM.

`Cc1cc(Nc2nccc(C(F)(F)F)n2)cc(-c2cnc(C3(O)CCCC(C)(CC(=O)O)C3)s2)c1` (centres unmarked) [Example 4C-22]: the IC50 was under 100 nM.

On to `CC(C)N1CCC(O)(c2ncc(-c3cccc(Nc4nccc(C(F)(F)F)n4)c3)s2)CC1` [4D-5], for which the IC50 lay in the range of 100 to 1000 nM.

Regarding `Cc1cc(Nc2nccc(C(F)(F)F)n2)cc(-c2cnc(C3(O)CCN(C(=O)OC(C)(C)C)CC3)s2)c1` [Example 45, tert-butyl 4-hydroxy-4-[5-(3-methyl-5-{[4-(trifluoromethyl)pyrimidin-2-yl]amino}phenyl)-1,3-thiazol-2-yl]piperidine-1-carboxylate], the IC50 was under 100 nM.

For `OC1(c2ncc(-c3cc(Cl)cc(Nc4nccc(C(F)(F)F)n4)c3)s2)CCC1` [Example 3, 1-[5-(3-chloro-5-{[4-(trifluoromethyl)pyrimidin-2-yl]amino}phenyl)-1,3-thiazol-2-yl]cyclobutanol], the IC50 lay in the range of 100 to 1000 nM.

With `Cc1cc(Nc2nccc(C(F)(F)F)n2)cc(-c2cnc(C3CCC(=O)O3)s2)c1` (centres unmarked) [Example 4B-60], the IC50 is under 100 nM.

Turning to `Cc1cc(Nc2nccc(C(F)(F)F)n2)cc(-c2cnc(C(C)(O)c3ccc(CC(=O)O)cc3)s2)c1` (single isomer, unassigned) [Example 4A-59], the IC50 was 100 to 1000 nM.

For `Cc1cc(Nc2nccc(C(F)(F)F)n2)cc(-c2cnc(C3(NS(C)(=O)=O)COC3)s2)c1` [Example 60, N-{3-[5-(3-methyl-5-{[4-(trifluoromethyl)pyrimidin-2-yl]amino}phenyl)-1,3-thiazol-2-yl]-oxetan-3-yl}methanesulfonamide], the IC50 is under 100 nM.

In the case of `Cc1cc(Nc2nccc(C(F)(F)F)n2)cc(-c2cnc(C3(O)CCN(C4CC4)CC3)s2)c1` [4D-8], the IC50 was under 100 nM.

Regarding `Cc1cc(Nc2nccc(C(=O)O)n2)cc(-c2cnc(C(C)(O)C(F)(F)F)s2)c1` (centres unmarked) [Example 68, 2-({3-methyl-5-[2-(1,1,1-trifluoro-2-hydroxypropan-2-yl)-1,3-thiazol-5-yl]phenyl}amino)-pyrimidine-4-carboxylic acid], the IC50 is 1000 to 10000 nM.

In the case of `Cc1cc(Nc2nccc(C)n2)cc(-c2cnc(C3(C)OC(=O)CC3(C)C)s2)c1` (centres unmarked) [Example 4B-58], the IC50 was under 100 nM.

The values above are taken from US8759366B2, “Aminopyrimidines as SYK inhibitors” (Merck Sharp & Dohme Corp., priority 2009, dated 2014).
